From US9321756B2, “Azole compounds as PIM inhibitors” (priority 2011, dated 2016)
Where two headings read alike, the source gives them in different places.

What was measured:
[1] = target: full length recombinant Pim-1 (Homo sapiens (Human), UniProt P11309); experiment: Pim enzyme assay (HTRF, phosphorylation of biotinylated-BAD (S112) peptide), Pim-1; assay type: biochemical
[2] = target: full length recombinant Pim-2 (Homo sapiens (Human), UniProt Q9P1W9); experiment: Pim enzyme assay (HTRF, phosphorylation of biotinylated-BAD (S112) peptide), Pim-2; assay type: biochemical; conditions: read-out: Pim2_IC50
[3] = HTRF, 10-point curve, high dose 1 uM, 2 h at RT, read-out: Pim_1_IC50
[4] = HTRF, 10-point curve, high dose 1 uM, 45 min at RT
[5] = Pim-1 enzyme assay, read-out: Pim_1_IC50

Chain of full length recombinant Pim-2 (Q9P1W9 whole entry): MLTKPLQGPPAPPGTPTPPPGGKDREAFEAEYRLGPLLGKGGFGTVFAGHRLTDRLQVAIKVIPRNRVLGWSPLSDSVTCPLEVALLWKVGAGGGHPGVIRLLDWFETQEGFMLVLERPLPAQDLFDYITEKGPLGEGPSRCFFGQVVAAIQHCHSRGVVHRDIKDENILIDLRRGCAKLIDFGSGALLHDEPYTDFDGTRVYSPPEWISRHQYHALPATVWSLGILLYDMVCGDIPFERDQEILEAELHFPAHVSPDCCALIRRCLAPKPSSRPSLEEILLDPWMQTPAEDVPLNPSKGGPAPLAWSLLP
Chain of full length recombinant Pim-1 (P11309 whole entry): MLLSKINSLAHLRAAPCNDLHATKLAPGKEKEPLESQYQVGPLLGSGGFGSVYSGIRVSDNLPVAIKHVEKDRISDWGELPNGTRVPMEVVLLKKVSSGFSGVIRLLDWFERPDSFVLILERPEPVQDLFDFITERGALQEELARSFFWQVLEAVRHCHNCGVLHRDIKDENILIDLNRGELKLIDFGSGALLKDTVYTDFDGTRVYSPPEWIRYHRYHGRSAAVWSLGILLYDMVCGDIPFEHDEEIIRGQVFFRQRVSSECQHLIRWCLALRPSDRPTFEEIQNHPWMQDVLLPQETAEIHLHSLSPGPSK

| SMILES | IC50 [1, 3] [nM] | IC50 [2, 4] [nM] | IC50 [1, 5] [nM] | IC50 ([2]; Pim-2 enzyme assay) [nM] | also measured |
| --- | --- | --- | --- | --- | --- |
| CC(C)Nc1nnc(-c2ccc3[nH]cc(-c4nccc(C(=O)NC5CC5)n4)c3c2)o1 [Example 283, N-cyclopropyl-2-(5-(5-((1-methylethyl)amino)-1,3,4-oxadiazol-2-yl)-1H-indol-3-yl)-4-pyrimidinecarboxamide 2,2,2-trifluoroacetate] | 517 | 453 |  |  |  |
| CC(C)Nc1nnc(-c2ccc3[nH]cc(-c4nc(C5CC5)n[nH]4)c3c2)o1 [Example 263, 5-(3-(3-cyclopropyl-1H-1,2,4-triazol-5-yl)-1H-indol-5-yl)-N-(1-methylethyl)-1,3,4-oxadiazol-2-amine] |  |  | 241 | 383 |  |
| CCc1nc(-c2c[nH]c3ccc(-c4nnc(NC(C)(C)C)o4)cc23)ncc1F [Example 57, N-tert-butyl-5-(3-(4-ethyl-5-fluoropyrimidin-2-yl)-1H-indol-5-yl)-1,3,4-oxadiazol-2-amine] |  |  | 5.79 | 21 |  |
| CNC(=O)c1ccnc(-c2c[nH]c3ccc(-c4nnc(NC(C)C)o4)cc23)n1 [Example 282, N-methyl-2-(5-(5-((1-methylethyl)amino)-1,3,4-oxadiazol-2-yl)-1H-indol-3-yl)-4-pyrimidinecarboxamide 2,2,2-trifluoroacetate] | 509 | 652 |  |  |  |
| c1ccc(Nc2nnc(-c3ccc4[nH]cc(-c5cncc(C6CC6)n5)c4c3)o2)cc1 [Example 40, 5-(3-(6-Cyclopropylpyrazin-2-yl)-1H-indol-5-yl)-N-phenyl-1,3,4-oxadiazol-2-amine] |  |  | 105 | 215 |  |
| CC(C)Nc1nnc(-c2ccc3[nH]cc(-c4nc(C(=O)NC5CC5)cs4)c3c2)o1 [Example 278, N-cyclopropyl-2-(5-(5-((1-methylethyl)amino)-1,3,4-oxadiazol-2-yl)-1H-indol-3-yl)-1,3-thiazole-4-carboxamide] | 186 | 408 |  |  |  |
| CC(C)Oc1cccc(-c2c[nH]c3ccc(-c4nc(N)ns4)cc23)n1 [Example 63, 5-(3-(6-isopropoxypyridin-2-yl)-1H-indol-5-yl)-1,2,4-thiadiazol-3-amine] |  |  | 551 | 400 |  |
| CC(C)Nc1nnc(-c2ccc3[nH]cc(-c4nccc(N5CCN(C)C(=O)C5)n4)c3c2)o1 [Example 61, 4-(2-(5-(5-(isopropylamino)-1,3,4-oxadiazol-2-yl)-1H-indol-3-yl)pyrimidin-4-yl)-1-methylpiperazin-2-one] |  |  | 45.9 | 46.8 |  |
| COc1nccc(-c2c[nH]c3ccc(-c4nnc(NC(C)C)o4)cc23)n1 [Example 297, 5-(3-(2-methoxy-4-pyrimidinyl)-1H-indol-5-yl)-N-(1-methylethyl)-1,3,4-oxadiazol-2-amine] | 39.2 | 73.8 |  |  |  |
| CNC(=O)c1cncc(-c2c[nH]c3ccc(-c4nnc(NC(C)C)o4)cc23)c1 [Example 286, 5-(5-(5-(isopropylamino)-1,3,4-oxadiazol-2-yl)-1H-indol-3-yl)-N-methylnicotinamide] | 713 | 843 |  |  |  |
| CNC(=O)c1ccc(F)c(-c2c[nH]c3ccc(-c4nnc(NC(C)C)o4)cc23)c1 [Example 289, 4-fluoro-3-(5-(5-(isopropylamino)-1,3,4-oxadiazol-2-yl)-1H-indol-3-yl)-N-methylbenzamide] |  | 301 |  |  | IC50 [1]: 233 nM |
| CC(C)Nc1nnc(-c2ccc3[nH]cc(-c4cncc(C(=O)NC5CC5)c4)c3c2)o1 [Example 299, N-cyclopropyl-5-(5-(5-((1-methylethyl)amino)-1,3,4-oxadiazol-2-yl)-1H-indol-3-yl)-3-pyridinecarboxamide] | 767 | 299 |  |  |  |
| CC(C)Nc1nnc(-c2ccc3[nH]cc(-c4nc(C(=O)O)cc(C5CC5)n4)c3c2)o1 [Example 47, 6-cyclopropyl-2-(5-(5-(isopropylamino)-1,3,4-oxadiazol-2-yl)-1H-indol-3-yl)pyrimidine-4-carboxylic acid] |  |  | 20.1 | 1.16 |  |
| CC(C)(C)Nc1nnc(-c2ccc3[nH]cc(-c4nccc(C(N)=O)n4)c3c2)o1 [Example 273, 2-(5-(5-(tert-butylamino)-1,3-4-oxadiazol-2-yl)-1H-indol-3-yl)-4-pyrimidinecarboxamide] |  |  | 11.8 | 28.5 |  |
| CC(C)Nc1nnc(-c2ccc3[nH]cc(-c4ncc(C(N)=O)s4)c3c2)o1 [Example 276, 2-(5-(5-((1-methylethyl)amino)-1,3,4-oxadiazol-2-yl)-1H-indol-3-yl)-1,3-thiazole-5-carboxamide] | 111 | 315 |  |  |  |
| CC(C)Nc1nnc(-c2ccc3[nH]cc(-c4nccc(C(N)=O)n4)c3c2)o1 [Example 261, 2-(5-(5-((1-methylethyl)amino)-1,3,4-oxadiazol-2-yl)-1H-indol-3-yl)-4-pyrimidinecarboxamide] |  |  |  | 70.8 | IC50 [1]: 105 nM |
| CNC(=O)c1cccc(-c2c[nH]c3ccc(-c4nnc(NC(C)C)o4)cc23)n1 [Example 285, 6-(5-(5-(isopropylamino)-1,3,4-oxadiazol-2-yl)-1H-indol-3-yl)-N-methylpicolinamide] | 401 | 760 |  |  |  |

| SMILES | IC50 [1, 3] [nM] | IC50 [2, 4] [nM] | IC50 [1, 5] [nM] | IC50 ([2]; Pim-2 enzyme assay) [nM] | also measured |
| --- | --- | --- | --- | --- | --- |
| CC(C)Nc1nnc(-c2ccc3[nH]cc(-c4cccc(C(=O)N(C)C)n4)c3c2)o1 [Example 292, N,N-dimethyl-6-(5-(5-((1-methylethyl)amino)-1,3,4-oxadiazol-2-yl)-1H-indol-3-yl)-2-pyridinecarboxamide] | 496 | 541 |  |  |  |
| CC(C)Nc1nnc(-c2ccc3[nH]cc(-c4ncc(C(=O)NC5CC5)s4)c3c2)o1 [Example 275, N-cyclopropyl-2-(5-(5-((1-methylethyl)amino)-1,3,4-oxadiazol-2-yl)-1H-indol-3-yl)-1,3-thiazole-5-carboxamide] | 259 | 705 |  |  |  |
| COc1ccnc(-c2c[nH]c3ccc(-c4nnc(NC(C)C)o4)cc23)n1 [Example 59, N-isopropyl-5-(3-(4-methoxypyrimidin-2-yl)-1H-indol-5-yl)-1,3,4-oxadiazol-2-amine] |  |  | 30.4 | 16.7 |  |
| CC(C)Oc1cccc(-c2c[nH]c3ccc(-c4noc(N)n4)cc23)n1 [Example 69, 3-(3-(6-isopropoxypyridin-2-yl)-1H-indol-5-yl)-1,2,4-oxadiazol-5-amine] |  |  | 241 | 668 |  |
| CC(C)Nc1nnc(-c2ccc3[nH]cc(-c4nccc(OC(C)C)n4)c3c2)o1 [Example 60, 5-(3-(4-isopropoxypyrimidin-2-yl)-1H-indol-5-yl)-N-isopropyl-1,3,4-oxadiazol-2-amine] |  |  | 20.1 | 13.5 |  |
| CC(=O)Nc1nc(-c2ccc3[nH]cc(-c4cncc(OC(C)C)n4)c3c2)no1 [Example 74, N-(3-(3-(6-isopropoxypyrazin-2-yl)-1H-indol-5-yl)-1,2,4-oxadiazol-5-yl)acetamide] |  |  | 186 | > 1000 |  |
| CNc1nnc(-c2ccc3[nH]cc(-c4ccccc4)c3c2)s1 [Example 223, N-methyl-5-(3-phenyl-1H-indol-5-yl)-1,3,4-thiadiazol-2-amine] |  |  | 1140 | 1950 |  |
| Nc1nnc(-c2ccc3[nH]cc(-c4cc(C(F)(F)F)ncn4)c3c2)o1 [Example 95, 5-(3-(6-(trifluoromethyl)-4-pyrimidinyl)-1H-indol-5-yl)-1,3,4-oxadiazol-2-amine] |  |  | > 1000 | 838 |  |
| CC(C)Nc1nnc(-c2ccc3[nH]cc(-c4ccc(C(N)=O)cc4F)c3c2)o1 [Example 290, 3-fluoro-4-(5-(5-(isopropylamino)-1,3,4-oxadiazol-2-yl)-1H-indol-3-yl)benzamide] |  | 238 |  |  | IC50 [1]: 69.6 nM |
| CS(=O)(=O)c1ccc(-c2c[nH]c3ccc(-c4nnc(N)o4)cc23)nc1 [Example 284, 5-(3-(5-(methylsulfonyl)-2-pyridinyl)-1H-indol-5-yl)-1,3,4-oxadiazol-2-amine 2,2,2-trifluoroacetate] | 515 |  |  |  | IC50 [2]: 555 nM |
| CNc1nnc(-c2ccc3[nH]cc(-c4nccc(-c5ccccc5)n4)c3c2)s1 [Example 131, N-methyl-5-(3-(4-phenyl-2-pyrimidinyl)-1H-indol-5-yl)-1,3,4-thiadiazol-2-amine] |  |  | 88.2 | 35.8 |  |
| CCOc1nc(-c2c[nH]c3ccc(-c4nnc(NC(C)C)o4)cc23)ncc1F [Example 259, 5-(3-(4-ethoxy-5-fluoro-2-pyrimidinyl)-1H-indol-5-yl)-N-(1-methylethyl)-1,3,4-oxadiazol-2-amine] |  |  | 30.4 | 36.9 |  |
| CC(C)c1ccnc(-c2c[nH]c3ccc(-c4nnc(NCC#N)o4)cc23)n1 [Example 45, 2-((5-(3-(4-isopropylpyrimidin-2-yl)-1H-indol-5-yl)-1,3,4-oxadiazol-2-yl)amino)acetonitrile] |  |  | 3.83 | 2.83 |  |
| COc1nc(-c2c[nH]c3ccc(-c4nnc(NC(C)(C)C)o4)cc23)ncc1F [Example 55, N-tert-butyl-5-(3-(5-fluoro-4-methoxypyrimidin-2-yl)-1H-indol-5-yl)-1,3,4-oxadiazol-2-amine 2,2,2-trifluoroacetate] |  |  |  | 28.7 | IC50 [1]: 8.77 nM |
| CC(C)Oc1cccc(-c2c[nH]c3ccc(-c4nc(N)no4)cc23)n1 [Example 68, 5-(3-(6-isopropoxypyridin-2-yl)-1H-indol-5-yl)-1,2,4-oxadiazol-3-amine] |  |  | 42.7 |  | IC50 [2]: 79.7 nM |
| CC1(C)COCCN1c1nnc(-c2ccc3[nH]cc(-c4cncc(C5CC5)n4)c3c2)o1 [Example 253, 3-(6-cyclopropyl-2-pyrazinyl)-5-(5-(3,3-dimethyl-4-morpholinyl)-1,3,4-oxadiazol-2-yl)-1H-indole] |  |  | 26.7 | 141 |  |
| Cc1cncc(-c2c[nH]c3ccc(-c4nnc(-c5ccccc5)s4)cc23)n1 [Example 274, 3-(6-methyl-2-pyrazinyl)-5-(5-phenyl-1,3,4-thiadiazol-2-yl)-1H-indole] |  |  |  | > 1000 | IC50 [1]: > 1000 nM |
